Target: T1, LXRβ (Homo sapiens, UniProt P55055)
T1 construct: Co-transfection expression plasmids, comprising full-length LXRα (pCMX-h LXRα[…] or LXRβ (pCMX-hLXRβ)); expressed in transfected cells; host or cells: CV-1 African Green Monkey Kidney Cells
T1 sequence (P55055 1-460): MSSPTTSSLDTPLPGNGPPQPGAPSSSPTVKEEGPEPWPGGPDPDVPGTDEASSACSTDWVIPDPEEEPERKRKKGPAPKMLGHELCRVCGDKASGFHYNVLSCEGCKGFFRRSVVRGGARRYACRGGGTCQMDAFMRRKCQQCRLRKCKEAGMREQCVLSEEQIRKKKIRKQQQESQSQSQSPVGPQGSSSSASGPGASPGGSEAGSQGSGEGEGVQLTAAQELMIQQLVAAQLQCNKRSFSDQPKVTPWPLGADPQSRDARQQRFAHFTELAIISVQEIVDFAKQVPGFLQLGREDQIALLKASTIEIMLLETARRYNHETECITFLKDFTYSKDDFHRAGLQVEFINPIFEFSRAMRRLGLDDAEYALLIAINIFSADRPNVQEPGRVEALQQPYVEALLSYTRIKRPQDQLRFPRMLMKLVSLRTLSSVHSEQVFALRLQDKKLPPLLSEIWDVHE
T1 sequence (P19793 1-462 partner): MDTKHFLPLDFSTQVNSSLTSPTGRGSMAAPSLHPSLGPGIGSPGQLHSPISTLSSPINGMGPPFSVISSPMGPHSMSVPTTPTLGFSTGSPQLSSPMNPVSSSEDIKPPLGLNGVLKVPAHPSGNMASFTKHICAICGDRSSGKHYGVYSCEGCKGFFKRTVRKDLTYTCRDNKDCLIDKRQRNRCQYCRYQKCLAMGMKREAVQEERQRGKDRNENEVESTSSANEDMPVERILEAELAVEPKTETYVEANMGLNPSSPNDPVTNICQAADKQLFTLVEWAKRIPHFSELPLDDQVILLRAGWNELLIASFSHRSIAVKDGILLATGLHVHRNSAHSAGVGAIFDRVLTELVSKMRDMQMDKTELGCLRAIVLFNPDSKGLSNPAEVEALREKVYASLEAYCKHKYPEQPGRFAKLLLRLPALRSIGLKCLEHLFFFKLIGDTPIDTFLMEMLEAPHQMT
Experiment: Co-transfection assay (LXRE luciferase reporter), LXRβ
Type: cell-based
Settings: for EC50: CV-1 cells transfected with pCMX-hLXRβ and LXREx1-Tk-Luciferase, 20 hours incubation; for Emax: LXRβ co-transfection, relative to high control 1-(2,4-difluorobenzyl)-2-oxo-6-(4-phenoxyphenyl)-4-(trifluoromethyl)-1,2-dihydropyridine-3-carbonitrile, read-out: % Efficacy
Outline: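 CV-1 / pCMX-hLXRβ + LXREx1-Tk-Luc + β-gal; cpd 20 h, 37 °C, ≤0.5% DMSO; Steady-Glo luminescence. 11-pt ½-log curves, duplicate wells, sigmoidal fit → EC50; % efficacy vs high-control agonist, DMSO low control; mean of ≥2 expts.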

| Structure (SMILES) | EC50 | Emax |
| --- | --- | --- |
| Cc1nc(C(F)(F)F)cn1-c1ccc(-c2cccc(S(C)(=O)=O)c2)cc1-n1nncc1-c1ccc(F)c(OC(F)(F)F)c1 [Example 46, 5-{4-fluoro-3-[(trifluoromethyl)oxy]phenyl}-1-{3′-(methylsulfonyl)-4-[2-methyl-4-(trifluoromethyl)-1H-imidazol-1-yl]biphenyl-3-yl}-1H-1,2,3-triazole] | 2310 nM | 62% |
| CS(=O)(=O)c1cccc(-c2cc(Cl)c(-n3cnc(C(F)(F)F)c3)c(-n3nncc3-c3ccc(Cl)cc3)c2)c1 [Example 7, 1-(5-chloro-3′-(methylsulfonyl)-4-(4-(trifluoromethyl)-1H-imidazol-1-yl)biphenyl-3-yl)-5-(4-chlorophenyl)-1H-1,2,3-triazole] | 408 nM | 55% |
| CCOc1ncc(-c2oc(C)nc2-c2cc(-c3cc(F)c(CO)c(S(C)(=O)=O)c3)ccc2-n2cc(C(F)(F)F)nc2C)cc1F [Example 472, (3′-(5-(6-ethoxy-5-fluoropyridin-3-yl)-2-methyloxazol-4-yl)-3-fluoro-4′-(2-methyl-4-(trifluoromethyl)-1H-imidazol-1-yl)-5-(methylsulfonyl)biphenyl-4-yl)methanol] | 199 nM | 50% |
| Cc1nc(C(F)(F)F)cn1-c1ccc(-c2cc(Cl)c(CO)c(S(C)(=O)=O)c2)cc1-n1nncc1-c1ccc(Cl)c(Cl)c1 [Example 79, {3-chloro-3′-[5-(3,4-dichlorophenyl)-1H-1,2,3-triazol-1-yl]-5-(methylsulfonyl)-4′-[2-methyl-4-(trifluoromethyl)-1H-imidazol-1-yl]biphenyl-4-yl}methanol] | 227 nM | 71% |
| COc1ncc(-c2oc(C)nc2-c2cc(-c3cc(F)c(CO)c(S(C)(=O)=O)c3)ccc2-n2cc(C(F)(F)F)nc2C)cn1 [Example 415, (3-fluoro-3′-(5-(2-methoxypyrimidin-5-yl)-2-methyloxazol-4-yl)-4′-(2-methyl-4-(trifluoromethyl)-1H-imidazol-1-yl)-5-(methylsulfonyl)biphenyl-4-yl)methanol] | 1500 nM | 86% |
| Cc1nc(C(F)(F)F)cn1-c1ccc(-c2cccc(S(C)(=O)=O)c2)cc1-c1ocnc1-c1ccc(OC(F)(F)F)cc1 [Example 361, 5-{3′-(methylsulfonyl)-4-[2-methyl-4-(trifluoromethyl)-1H-imidazol-1-yl]biphenyl-3-yl}-4-{4-[(trifluoromethyl)oxy]phenyl}-1,3-oxazole] | 183 nM | 89% |
| Cc1nc(C(F)(F)F)cn1-c1ccc(-c2cc(F)c(CO)c(S(C)(=O)=O)c2)cc1-c1nc(C2CC2)cn1-c1ccc2c(c1)OC(F)(F)O2 [Example 639, (3′-(4-cyclopropyl-1-(2,2-difluorobenzo[d][1,3]dioxol-5-yl)-1H-imidazol-2-yl)-3-fluoro-4′-(2-methyl-4-(trifluoromethyl)-1H-imidazol-1-yl)-5-(methylsulfonyl)biphenyl-4-yl)methanol] | 129 nM | 81% |
| Cc1nc(-c2cc(-c3cccc(S(C)(=O)=O)c3)ccc2-n2cc(C(F)(F)F)nc2C)c(-c2ccc(C)c(F)c2)o1 [Example 504, 5-(3-fluoro-4-methylphenyl)-2-methyl-4-(4-(2-methyl-4-(trifluoromethyl)-1H-imidazol-1-yl)-3′-(methylsulfonyl)biphenyl-3-yl)oxazole] | 91 nM | 77% |
| Cc1nc(-c2cc(-c3cccc(S(C)(=O)=O)c3)ccc2-n2cc(C(F)(F)F)nc2C)c(-c2ccc(Cl)cc2Cl)o1 [Example 486, 5-(2,4-dichlorophenyl)-2-methyl-4-(4-(2-methyl-4-(trifluoromethyl)-1H-imidazol-1-yl)-3′-(methylsulfonyl)biphenyl-3-yl)oxazole] | 109 nM | 89% |
| Cc1nc(-c2cc(-c3cccc(S(C)(=O)=O)c3)ccc2-n2cc(C(F)(F)F)nc2C)c(-c2cccc(OC(F)(F)F)c2)o1 [Example 573, 2-methyl-4-(4-(2-methyl-4-(trifluoromethyl)-1H-imidazol-1-yl)-3′-(methylsulfonyl)-[1,1′-biphenyl]-3-yl)-5-(3-(trifluoromethoxy)phenyl)oxazole] | 127 nM | 50% |
| Cc1nc(C(F)(F)F)cn1-c1ccc(-c2cc(F)c(CO)c(S(C)(=O)=O)c2)cc1-n1nncc1Cc1ccc(Cl)cc1 [Example 113] | 524 nM | 72% |
| Cc1nc(-c2ccc(OC(F)(F)F)cc2O)c(-c2cc(-c3cccc(S(C)(=O)=O)c3)ccc2-n2cc(C(F)(F)F)nc2C)o1 [Example 626, 2-(2-methyl-5-(4-(2-methyl-4-(trifluoromethyl)-1H-imidazol-1-yl)-3′-(methylsulfonyl)-[1,1′-biphenyl]-3-yl)oxazol-4-yl)-5-(trifluoromethoxy)phenol] | 57 nM | 62% |
| Cc1nc(-c2cc(-c3cccc(S(C)(=O)=O)c3)ccc2-n2cc(C#N)nc2C)c(-c2ccc3c(c2)OC(F)(F)O3)o1 [Example 371, 1-(3-(5-(2,2-difluorobenzo[d][1,3]dioxol-5-yl)-2-methyloxazol-4-yl)-3′-(methylsulfonyl)biphenyl-4-yl)-2-methyl-1H-imidazole-4-carbonitrile] | 248 nM | 45% |
| Cc1cc(-c2cc(-c3cc(F)c(CO)c(S(C)(=O)=O)c3)ccc2-n2cc(C(F)(F)F)nc2C)n(-c2ccc3c(c2)OC(F)(F)O3)n1 [Example 299, (3′-(1-(2,2-difluorobenzo[d][1,3]dioxol-5-yl)-3-methyl-1H-pyrazol-5-yl)-3-fluoro-4′-(2-methyl-4-(trifluoromethyl)-1H-imidazol-1-yl)-5-(methylsulfonyl)biphenyl-4-yl)methanol] | 17 nM | 77% |
| Cc1cc(-c2cc(-c3cc(F)c(CO)c(S(C)(=O)=O)c3)ccc2-n2cc(C(F)(F)F)nc2C)n(-c2ccc(OC(F)F)cc2)n1 [Example 287, (3′-(1-(4-(difluoromethoxy)phenyl)-3-methyl-1H-pyrazol-5-yl)-3-fluoro-4′-(2-methyl-4-(trifluoromethyl)-1H-imidazol-1-yl)-5-(methylsulfonyl)biphenyl-4-yl)methanol] | 26 nM | 80% |
| Cc1nc(C(F)(F)F)cn1-c1ccc(-c2cccc(S(C)(=O)=O)c2)cc1-c1nc(CC(C)O)oc1-c1ccc(OC(F)(F)F)cc1 (stereo not drawn) [Example 536, 1-(4-(4-(2-methyl-4-(trifluoromethyl)-1H-imidazol-1-yl)-3′-(methylsulfonyl)-[1,1′-biphenyl]-3-yl)-5-(4-(trifluoromethoxy)phenyl)oxazol-2-yl)propan-2-ol] | 280 nM | 82% |
| Cc1nc(C(F)(F)F)cn1-c1ccc(-c2cccc(S(C)(=O)=O)c2)cc1-n1nncc1-c1ccc(OC(F)(F)F)cc1F [Example 61, 5-{2-fluoro-4-[(trifluoromethyl)oxy]phenyl}-1-{3′-(methylsulfonyl)-4-[2-methyl-4-(trifluoromethyl)-1H-imidazol-1-yl]biphenyl-3-yl}-1H-1,2,3-triazole] | 265 nM | 87% |
| Cc1nc(Cl)cn1-c1ccc(-c2cccc(S(C)(=O)=O)c2)cc1-n1nncc1-c1ccc(OC(F)(F)F)cc1 [Example 149, 1-[4-(4-chloro-2-methyl-1H-imidazol-1-yl)-3′-(methylsulfonyl)biphenyl-3-yl]-5-{4-[(trifluoromethyl)oxy]phenyl}-1H-1,2,3-triazole] | 444 nM | 75% |
